# Laboratory results published in patent publication US6534522B2, “Subtype-selective NMDA receptor ligands and the use thereof” (Warner-Lambert Company, priority 1995, dated 2003).
# Counter-ions that a name gives are not always drawn. Like-named read-outs stand apart in the source and are kept apart here.
# What was measured:
# NR1A/2A NMDA receptor = NR1A/2A NMDA receptor (Rattus norvegicus, UniProt P35439+Q00959); assay: Xenopus oocyte expression system, two-electrode voltage clamp, NR1A/2A; format: cell-based
# Description: (§1) Electrophysiological assays may be utilized to characterize the actions of potential subtype-selective ligands at NMDA receptors expressed in Xenopus oocytes. The ligand may be assayed at the different subunit combinations of cloned rat NMDA receptors corresponding to the four putative NMDA receptor subtypes (Moriyoshi et al., Nature (Lond.) 354:31-37 (1991); Monyer et al., Science (Washington, D.C.) 256:1217-1221 (1992); Kutsuwada et al., Nature (Lond.) 358:36-41 (1992); Sugihara et al., Biochem. Biophys. Res. Comm. 185:826-832 (1992)).
# (§2) Using fixed saturating concentrations of agonists (glutamate 100 μM, glycine 1-10 μM depending on subunit combination), the inhibitory potency of a putative subtype-selective ligand may be assayed at the NMDA receptors assembled from NR1A/2A, NR1A/2B, NR1A/2C and NR1A/2D subunit combinations.
# (§3) The Xenopus oocyte expression system. Mature female Xenopus laevis were anaesthetized (20-40 min) using 0.15% 3-aminobenzoic acid ethyl ester (MS-222) and 2-4 ovarian lobes were surgically removed. Oocytes at developmental stages IV-VI (Dumont, J. N., J. Morphol. 136:153-180 (1972)), were dissected from the ovary still surrounded by enveloping ovarian tissues. Follicle-enclosed oocytes were micro-injected with 1:1 mixtures of cRNA:NR1A+NR2A, 2B, 2C or 2D; injecting ˜2, 5, or 20 ng of RNA encoding each receptor subunit. NR1A encoding cRNA was injected alone at ˜20 ng. Oocytes were stored in Barth's medium containing (in mM): NaCl, 88; KCl, 1; CaCl2, 0.41; Ca(NO3)2, 0.33; MgSO4, 0.82; NaHCO3, 2.4; HEPES 5; pH 7.4, with 0.1 mg/mL gentamycin sulphate. While oocytes were still surrounded by enveloping ovarian tissues the Barth's medium was supplemented with 0.1% bovine serum. Oocytes were defolliculated 1-2 days following injections by treatment with collagenase (0.5 mg/mL Sigma Type I for 0.5-1 hr) (Miledi and Woodward, J. Physiol. (Lond.) 416:601-621 (1989)) and subsequently stored in serum-free medium.
# (§4) Electrical recordings were made using a conventional two-electrode voltage clamp (Dagan TEV-200) over periods ranging between 3-21 days following injection. Oocytes were placed in a 0.1 mL recording chamber continuously perfused (5-15 mL min^−1) with frog Ringer's solution containing (in mM): NaCl, 115; KCl, 2; CaCl2, 1.8; HEPES, 5; pH 7.4. Drugs were applied by bath perfusion. When using the more rapid flow rates, half-times for mid-chamber solution changes were between 2-3 sec, however, exchange rates for drug solutions at the oocyte surface (i.e. beneath the vitelline envelope and among the tangles of microvilli) were probably considerably longer (Woodward et al., Mol. Pharmacol. 41:89-103 (1992)). Zero-Ca^2+/Ba^2+ Ringer had the composition (in mM): NaCl, 115; KCl, 2; BaCl2, 1.8; HEPES, 5; pH 7.4. Intraoocyte injections were made by pneumatic pressure-pulse ejection from micropipettes (Miledi and Parker, J. Physiol. (Lond.) 357:173-183 (1984)). Injection solutions of EGTA (40-400 mM) and BAPTA (50-500 mM) were made up in H2O, pH adjusted to 7.4 with KOH or HCl, and filtered to minimize plugging (Acrodisc-13, […]). Pressure was set between 200-400 kPa. The volume of injections was regulated by adjusting the time of pulses (0.1-1 sec) and was estimated by measuring the diameters of ejected droplets.
# (§5) Concentration-inhibition curves were fit with equation 2.
# (§6) I/Icontrol=1/(1+([antagonist]/10^−pIC50)^n) Eq. 2
# (§7) in which Icontrol is the current evoked by agonists alone, pIC50=−log IC50, […] is the concentration of antagonist that produces half maximal inhibition, and n is the slope factor. For incomplete curves analysis by fitting was unreliable and IC50 values were calculated by simple regression over linear portions of the curves (Origin: Microcal Software).
# (§8) Drugs were initially dissolved at concentrations of 10-100 mM in DMSO. Dilutions were then made to generate a series of DMSO stock solutions over the range 10 μM to 100 mM. Working solutions were made by 1000-3000 fold dilution of stocks into Ringer. […]
# NR1A/2C NMDA receptor = NR1A/2C NMDA receptor (Rattus norvegicus, UniProt P35439+Q00961); assay: Xenopus oocyte expression system, two-electrode voltage clamp, NR1A/2C; format: cell-based
# Description: as §1, §2, §3, §4, §5, §6, §7, §8
# NR1A/2B NMDA receptor = NR1A/2B NMDA receptor (Rattus norvegicus, UniProt P35439+Q00960); assay: Xenopus oocyte expression system, two-electrode voltage clamp, NR1A/2B; format: cell-based
# Description: as §1, §2, §3, §4, §5, §6, §7, §8
# [1] = cloned NR1A/2A subunits expressed in Xenopus oocytes, inhibition of agonist-evoked membrane current, read-out: 1A/2A IC50
# [2] = cloned NR1A/2C subunits expressed in Xenopus oocytes, inhibition of agonist-evoked membrane current, read-out: 1A/2C IC50
# [3] = cloned NR1A/2B subunits expressed in Xenopus oocytes, inhibition of agonist-evoked membrane current, read-out: 1A/2B IC50
# Chain of NR1A/2B NMDA receptor (Q00960 27-1482, other chains not shown): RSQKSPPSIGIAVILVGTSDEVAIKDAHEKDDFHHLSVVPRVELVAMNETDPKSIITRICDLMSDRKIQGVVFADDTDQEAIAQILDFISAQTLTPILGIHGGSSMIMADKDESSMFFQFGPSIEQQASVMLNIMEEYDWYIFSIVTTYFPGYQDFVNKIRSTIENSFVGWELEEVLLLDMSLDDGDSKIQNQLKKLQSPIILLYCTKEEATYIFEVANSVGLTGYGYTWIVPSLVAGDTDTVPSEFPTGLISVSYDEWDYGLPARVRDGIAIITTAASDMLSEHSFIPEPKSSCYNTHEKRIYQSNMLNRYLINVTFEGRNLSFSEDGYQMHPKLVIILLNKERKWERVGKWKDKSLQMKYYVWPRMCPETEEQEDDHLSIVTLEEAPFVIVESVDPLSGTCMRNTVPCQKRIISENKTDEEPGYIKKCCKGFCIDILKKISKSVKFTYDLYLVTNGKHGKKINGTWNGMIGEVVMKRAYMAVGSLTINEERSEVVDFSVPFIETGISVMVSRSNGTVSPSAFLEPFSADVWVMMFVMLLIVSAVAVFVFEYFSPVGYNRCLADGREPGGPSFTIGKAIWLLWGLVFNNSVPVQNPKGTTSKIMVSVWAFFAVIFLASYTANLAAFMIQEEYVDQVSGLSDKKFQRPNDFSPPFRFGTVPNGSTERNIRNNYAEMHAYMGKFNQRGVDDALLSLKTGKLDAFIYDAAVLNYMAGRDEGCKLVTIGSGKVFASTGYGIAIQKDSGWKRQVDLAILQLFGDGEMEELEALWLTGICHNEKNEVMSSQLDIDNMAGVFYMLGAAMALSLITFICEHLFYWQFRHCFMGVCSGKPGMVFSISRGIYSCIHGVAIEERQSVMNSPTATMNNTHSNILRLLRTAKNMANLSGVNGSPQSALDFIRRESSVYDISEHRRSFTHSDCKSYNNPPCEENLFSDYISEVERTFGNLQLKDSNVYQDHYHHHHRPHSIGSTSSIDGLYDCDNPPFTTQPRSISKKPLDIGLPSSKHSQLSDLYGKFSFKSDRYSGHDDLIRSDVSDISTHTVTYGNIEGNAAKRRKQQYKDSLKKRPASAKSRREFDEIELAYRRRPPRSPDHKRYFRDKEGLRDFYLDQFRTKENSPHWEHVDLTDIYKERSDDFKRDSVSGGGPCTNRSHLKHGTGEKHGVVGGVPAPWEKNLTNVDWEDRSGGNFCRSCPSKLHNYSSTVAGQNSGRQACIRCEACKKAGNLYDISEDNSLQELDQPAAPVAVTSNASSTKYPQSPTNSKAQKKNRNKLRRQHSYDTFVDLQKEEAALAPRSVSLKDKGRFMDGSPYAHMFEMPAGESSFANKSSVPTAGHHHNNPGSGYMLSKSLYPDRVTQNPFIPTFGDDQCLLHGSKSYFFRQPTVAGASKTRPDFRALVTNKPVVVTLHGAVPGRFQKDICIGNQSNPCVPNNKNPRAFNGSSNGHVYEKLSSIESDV
# Chain of NR1A/2C NMDA receptor (Q00961 20-1237, other chains not shown): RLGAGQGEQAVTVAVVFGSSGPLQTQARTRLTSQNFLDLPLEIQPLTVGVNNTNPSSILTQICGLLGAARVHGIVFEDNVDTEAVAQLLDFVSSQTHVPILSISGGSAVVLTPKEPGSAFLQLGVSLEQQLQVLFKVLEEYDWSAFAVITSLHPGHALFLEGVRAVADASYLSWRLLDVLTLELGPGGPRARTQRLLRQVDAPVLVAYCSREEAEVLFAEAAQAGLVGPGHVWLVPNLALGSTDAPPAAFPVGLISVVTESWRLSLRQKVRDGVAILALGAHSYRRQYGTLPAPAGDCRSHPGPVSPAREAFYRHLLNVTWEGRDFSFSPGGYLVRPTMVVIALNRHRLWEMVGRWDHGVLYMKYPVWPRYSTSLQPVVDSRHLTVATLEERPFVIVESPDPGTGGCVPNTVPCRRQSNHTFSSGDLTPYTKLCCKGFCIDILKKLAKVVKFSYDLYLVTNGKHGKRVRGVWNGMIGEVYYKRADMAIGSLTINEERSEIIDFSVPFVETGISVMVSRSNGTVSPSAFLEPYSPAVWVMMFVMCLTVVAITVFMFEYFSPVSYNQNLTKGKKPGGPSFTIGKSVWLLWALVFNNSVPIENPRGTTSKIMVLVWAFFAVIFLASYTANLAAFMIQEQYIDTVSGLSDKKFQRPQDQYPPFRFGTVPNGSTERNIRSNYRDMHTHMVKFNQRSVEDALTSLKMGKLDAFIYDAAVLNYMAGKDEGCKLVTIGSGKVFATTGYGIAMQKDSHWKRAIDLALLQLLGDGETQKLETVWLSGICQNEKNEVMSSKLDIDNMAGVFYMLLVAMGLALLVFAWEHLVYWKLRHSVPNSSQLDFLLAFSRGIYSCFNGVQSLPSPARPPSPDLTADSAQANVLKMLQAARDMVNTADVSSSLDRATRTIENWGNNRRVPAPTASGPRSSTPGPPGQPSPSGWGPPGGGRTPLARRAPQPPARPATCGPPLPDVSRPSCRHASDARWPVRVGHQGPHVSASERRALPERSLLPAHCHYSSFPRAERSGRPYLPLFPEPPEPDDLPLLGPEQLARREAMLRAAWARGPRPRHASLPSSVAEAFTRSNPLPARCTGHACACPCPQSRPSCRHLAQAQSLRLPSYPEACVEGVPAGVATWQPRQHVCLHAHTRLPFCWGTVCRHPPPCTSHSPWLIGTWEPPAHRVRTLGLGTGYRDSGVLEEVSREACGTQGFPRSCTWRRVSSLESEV
# Chain of NR1A/2A NMDA receptor (Q00959 20-1464 limits assumed, other chains not shown): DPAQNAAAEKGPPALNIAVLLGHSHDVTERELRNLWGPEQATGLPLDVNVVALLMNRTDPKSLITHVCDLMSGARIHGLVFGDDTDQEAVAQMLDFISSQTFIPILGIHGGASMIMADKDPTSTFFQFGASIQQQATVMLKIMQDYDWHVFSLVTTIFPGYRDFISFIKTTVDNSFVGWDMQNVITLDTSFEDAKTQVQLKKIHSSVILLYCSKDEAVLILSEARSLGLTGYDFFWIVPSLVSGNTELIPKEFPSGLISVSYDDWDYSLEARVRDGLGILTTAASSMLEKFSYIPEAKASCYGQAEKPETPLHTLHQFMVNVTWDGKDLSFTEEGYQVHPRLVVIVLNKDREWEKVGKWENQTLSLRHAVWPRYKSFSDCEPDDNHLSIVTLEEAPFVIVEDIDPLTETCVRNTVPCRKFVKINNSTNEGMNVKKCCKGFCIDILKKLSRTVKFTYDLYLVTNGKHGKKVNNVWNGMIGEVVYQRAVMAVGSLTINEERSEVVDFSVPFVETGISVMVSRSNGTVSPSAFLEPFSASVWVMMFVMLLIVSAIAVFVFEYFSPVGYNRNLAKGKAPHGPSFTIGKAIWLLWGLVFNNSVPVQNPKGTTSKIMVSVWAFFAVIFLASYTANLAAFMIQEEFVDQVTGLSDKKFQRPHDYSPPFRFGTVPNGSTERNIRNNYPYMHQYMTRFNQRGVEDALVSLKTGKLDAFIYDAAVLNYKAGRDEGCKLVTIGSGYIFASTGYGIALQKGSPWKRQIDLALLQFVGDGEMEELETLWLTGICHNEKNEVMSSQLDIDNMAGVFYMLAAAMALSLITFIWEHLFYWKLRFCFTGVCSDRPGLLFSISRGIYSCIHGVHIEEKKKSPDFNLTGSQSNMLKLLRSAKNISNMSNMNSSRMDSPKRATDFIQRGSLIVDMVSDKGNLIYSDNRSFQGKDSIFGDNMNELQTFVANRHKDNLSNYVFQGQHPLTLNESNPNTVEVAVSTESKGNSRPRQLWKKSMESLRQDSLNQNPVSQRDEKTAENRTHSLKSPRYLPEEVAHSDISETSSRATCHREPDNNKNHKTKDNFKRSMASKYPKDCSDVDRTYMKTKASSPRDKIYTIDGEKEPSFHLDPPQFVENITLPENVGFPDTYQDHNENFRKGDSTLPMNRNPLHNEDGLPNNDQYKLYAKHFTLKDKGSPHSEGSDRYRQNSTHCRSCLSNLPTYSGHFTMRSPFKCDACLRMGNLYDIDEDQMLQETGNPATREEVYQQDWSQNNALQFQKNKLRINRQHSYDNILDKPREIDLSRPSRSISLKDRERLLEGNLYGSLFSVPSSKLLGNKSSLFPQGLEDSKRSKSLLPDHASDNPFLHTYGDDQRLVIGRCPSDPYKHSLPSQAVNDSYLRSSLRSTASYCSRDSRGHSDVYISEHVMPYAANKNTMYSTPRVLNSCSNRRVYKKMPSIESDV
SMILES,melting point,IC50 (NR1A/2A NMDA receptor; [1]),IC50 (NR1A/2B NMDA receptor; [3]),also measured
O=C(CCCN1CCc2c([nH]c3ccccc23)C1)c1ccc(F)cc1,188 to 190 °C,–,–,–
Br.c1ccc(CC2CCCN(CCCOc3ccccc3)C2)cc1 (stereo not shown),148 to 149 °C,–,–,–
"OCCCN1CCC(Cc2ccccc2)CC1 (as salt: hydrobromid) [Ex. 83, 4-Benzyl-1-(3-hydroxypropyl)piperidine hydrobromide]",122 to 124 °C,–,–,–
"OCCCCN1CCC(Cc2ccccc2)CC1 (as salt: hydrobromid) [Ex. 86, 4-Benzyl-1-(4-hydroxybutyl)piperidine hydrobromide]",129 to 130 °C,–,–,–
"OCCCN1CCC(Cc2ccc(Cl)cc2)CC1 (as salt: hydrobromid) [Ex. 89, 4-(4-Chlorobenzyl)-1-(3-hydroxypropyl) piperidine hydrobromide]",139.5 to 140 °C,–,–,–
"OCCCN1CCC(Cc2ccc(F)cc2)CC1 (as salt: hydrobromid) [Ex. 90, 4-(4-Fluorobenzyl)-1-(3-hydroxypropyl) piperidine hydrobromide]",108 to 110 °C,–,–,–
"COc1ccc(CC2CCN(CCCO)CC2)cc1 (as salt: hydrobromid) [Ex. 93, 1-(3-Hydroxypropyl)-4-(4-methoxybenzyl) piperidine hydrobromide]",129 to 131 °C,–,–,–
"OC1(Cc2ccccc2)CCN(CCCc2ccccc2)CC1 (as salt: hydrochloride) [Ex. 16, 4-Benzyl-4-hydroxy-1-(3-phenylpropyl)piperidine]",156 to 157 °C,–,–,–
"c1ccc(OCCN2CCc3ccccc3C2)cc1 (as salt: hydrochloride) [Ex. 18, N-(2-Phenoxyethyl)-1,2,3,4-tetrahydroisoquinoline]",181 to 182 °C,–,–,–
"c1ccc(OCCCN2CCc3ccccc3C2)cc1 (as salt: hydrochloride) [Ex. 19, N-(3-Phenoxypropyl)-1,2,3,4-tetrahydroisoquinoline]",194 to 195 °C,–,–,–
"O=C(c1ccccc1)C1CCN(CCOc2ccccc2)CC1 (as salt: hydrochloride) [Ex. 27, 4-Benzoyl-1-(2-phenoxyethyl)piperidine]",161 to 162 °C,–,–,–
"CC(O)CCN1CCC(Cc2ccc(F)cc2)CC1 (stereo not shown) (as salt: hydrochloride) [Ex. 91, 4-(4-Fluorobenzyl)-1-(3-hydroxybutyl) piperidine hydrochloride]",99 to 103 °C,–,–,–
"C[C@@H](CO)CN1CCC(Cc2ccc(F)cc2)CC1 (as salt: hydrochloride) [Ex. 92, (R)-4-(4-Fluorobenzyl)-1-(3-hydroxy-2-methylpropyl) piperidine hydrochloride]",128 to 130 °C,–,–,–
"c1ccc(OCCCN2CCc3c([nH]c4ccccc34)C2)cc1 [Ex. 25, 2-(3-Phenoxypropyl)-1,2,3,4-tetrahydro-9H-pyrido[3,4-b]indole]",123 to 124 °C,60 µM,9 µM,IC50 (NR1A/2C NMDA receptor; [2]): 175 µM
"c1ccc(CCCN2CCc3c([nH]c4ccccc34)C2)cc1 [Ex. 26, 2-(3-Phenylpropyl)-1,2,3,4-tetrahydro-9H-pyrido[3,4-b]indole]",130 to 131 °C,30 µM,15 µM,IC50 (NR1A/2C NMDA receptor; [2]): 105 µM
"OCCN1CCC(Cc2ccccc2)CC1 [Ex. 82, 4-Benzyl-1-(2-hydroxyethyl)piperidine]",62 to 64 °C,290 µM,3.3 µM,IC50 (NR1A/2C NMDA receptor; [2]): > 300 µM
"CC(CCO)N1CCC(Cc2ccccc2)CC1 (stereo not shown) [Ex. 84, 4-Benzyl-1-(3-hydroxy-1-methylpropyl)piperidine]",74 to 76 °C,270 µM,6 µM,IC50 (NR1A/2C NMDA receptor; [2]): > 300 µM
"OCC(O)CN1CCC(Cc2ccccc2)CC1 (stereo not shown) [Ex. 85, 4-Benzyl-1-(2,3-dihydroxypropyl)piperidine]",92 to 94 °C,> 300 µM,6 µM,IC50 (NR1A/2C NMDA receptor; [2]): > 300 µM
"CC(C)(O)CCN1CCC(Cc2ccccc2)CC1.Cl [Ex. 102, 4-benzyl-1-(3-hydroxy-3-methylbutyl) piperidine hydrochloride]",136 to 138 °C,–,–,IC50 (NR1A/2A NMDA receptor): > 300 µM; IC50 (NR1A/2C NMDA receptor): > 300 µM; IC50 (NR1A/2B NMDA receptor): 3.5 µM

# Further lines, with some results ahead:
melting point,IC50 (NR1A/2A NMDA receptor; [1]),IC50 (NR1A/2B NMDA receptor; [3]),SMILES,also measured
148 to 151 °C,–,–,"COc1ccc(C(=O)C2CCN(CCCO)CC2)cc1 (as salt: hydrobromid) [Example 78, 1-(3-Hydroxypropyl)-4-(4-methoxybenzoyl)piperidine]",–
155 to 160 °C,–,–,"CC(O)CCN1CCC(Cc2ccc(N)cc2)CC1 (stereo not shown) (as salt: hydrochloride) [Ex. 105, 4-(4-aminobenzyl)-1-(3-hydroxy-butyl) piperidine hydrochloride]",–
210 to 215 °C (dec.),–,–,"O=c1[nH]c2ccc(OCCCN3CCc4ccccc4C3)cc2[nH]1 (as salt: hydrochloride) [Ex. 108, N-(3-(2-oxobenzimidazol-5-oxy)propyl)-1,2,3,4-tetrahydroisoquinoline]",–
243 to 245 °C (dec.),–,–,"Clc1ccc(CC2CCN(C3CCc4ccccc4C3)CC2)cc1 (stereo not shown) (as salt: hydrochloride) [Example 98, 4-(4-Chlorobenzyl)-1-(tetralin-2-yl)piperidine hydrochloride]",–
105 to 107 °C,260 µM,280 µM,"CC(O)CCN1CCC(Cc2ccc([N+](=O)[O-])cc2)CC1.Cl (stereo not shown) [Ex. 101, 4-(4-nitrobenzyl)-1-(3-hydroxybutyl) piperidine hydrochloride]",–
153 to 155 °C,3.5 µM,0.2 µM,"Oc1ccc(CCNC2=NCC(Cc3ccccc3)CN2)cc1 (stereo not shown) [Ex. 103, 2-[2-(4-Hydroyphenyl)ethylamino]-5-benzyl-1,3-diazacyclohexene]",IC50 (NR1A/2C NMDA receptor; [2]): 58 µM
214 to 215 °C (dec.),8.5 µM,5 µM,"Br.Fc1ccc(OCCNN2CCC(Cc3ccc(Cl)cc3)CC2)cc1 [Ex. 106, 4-(4-Chlorobenzyl)-1-(N-(2-(4-fluorophenoxy)ethyl)amino)piperidine hydrobromide]",IC50 (NR1A/2C NMDA receptor; [2]): 23 µM
178 to 179 °C,250 µM,160 µM,"Cl.Oc1ccc(OCCN2CCC(C[C@]34C[C@H]5C[C@H](C[C@H](C5)C3)C4)CC2)cc1 [Ex. 107, 4-(1-Adamantylmethyl)-1-(2-(4-hydroxyphenoxy)ethyl)piperidine]",IC50 (NR1A/2C NMDA receptor; [2]): 75 µM
106 to 108 °C,–,–,"O=C(c1ccc(F)cc1)C1CCN(CCCO)CC1 [Example 77, 4-(p-fluorobenzoyl)-1-(3-hydroxypropyl)piperidine]",–
77 to 80 °C,–,–,"O=C(c1ccccc1O)C1CCN(CCCO)CC1 [Example 79, 4-(2-Hydroxybenzoyl)-1-(3-hydroxypropyl)piperidine]",–
